Results published in article PMC11879040, “Advancing systemic toxicity risk assessment: Evaluation of a NAM-based toolbox approach” (Toxicological Sciences, 2024).
Like-named read-outs stand apart in the source and are kept apart here.

Key:
[1] = tested on: Gamma-aminobutyric acid receptor subunit alpha-1 BZD site, GABRA1A (r); assay type: binding, rat; settings: control diazepam
[2] = molecular target: T1, Adenosine receptor A2a, ADORA2A (h) (Homo sapiens, UniProt P29274); assay: IPP ADORA2A binding (agonist radioligand); settings: control NECA
T1 construct: purchased Eurofins Cerep (SafetyScreen44-based IPP panel)
T1 sequence (P29274 whole entry): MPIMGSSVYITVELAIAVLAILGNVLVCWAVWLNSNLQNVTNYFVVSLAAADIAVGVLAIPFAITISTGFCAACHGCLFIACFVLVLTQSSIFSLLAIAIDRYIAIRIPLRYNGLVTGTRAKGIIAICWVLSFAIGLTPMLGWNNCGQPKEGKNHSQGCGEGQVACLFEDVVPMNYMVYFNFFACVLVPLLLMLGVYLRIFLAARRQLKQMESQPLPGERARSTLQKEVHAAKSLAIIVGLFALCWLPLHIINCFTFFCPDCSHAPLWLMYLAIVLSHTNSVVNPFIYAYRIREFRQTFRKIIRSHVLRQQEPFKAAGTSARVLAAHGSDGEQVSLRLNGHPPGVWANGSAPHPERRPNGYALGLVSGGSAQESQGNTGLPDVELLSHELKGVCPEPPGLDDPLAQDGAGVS

[3] = molecular target: T2, Estrogen receptor, ER1 (h) (Homo sapiens, UniProt P03372); assay: IPP ER1 coactivator recruitment (agonist); assay type: biochemical; settings: estriol
T2 construct: purchased Eurofins Cerep (SafetyScreen44-based IPP panel)
T2 sequence (P03372 1-595): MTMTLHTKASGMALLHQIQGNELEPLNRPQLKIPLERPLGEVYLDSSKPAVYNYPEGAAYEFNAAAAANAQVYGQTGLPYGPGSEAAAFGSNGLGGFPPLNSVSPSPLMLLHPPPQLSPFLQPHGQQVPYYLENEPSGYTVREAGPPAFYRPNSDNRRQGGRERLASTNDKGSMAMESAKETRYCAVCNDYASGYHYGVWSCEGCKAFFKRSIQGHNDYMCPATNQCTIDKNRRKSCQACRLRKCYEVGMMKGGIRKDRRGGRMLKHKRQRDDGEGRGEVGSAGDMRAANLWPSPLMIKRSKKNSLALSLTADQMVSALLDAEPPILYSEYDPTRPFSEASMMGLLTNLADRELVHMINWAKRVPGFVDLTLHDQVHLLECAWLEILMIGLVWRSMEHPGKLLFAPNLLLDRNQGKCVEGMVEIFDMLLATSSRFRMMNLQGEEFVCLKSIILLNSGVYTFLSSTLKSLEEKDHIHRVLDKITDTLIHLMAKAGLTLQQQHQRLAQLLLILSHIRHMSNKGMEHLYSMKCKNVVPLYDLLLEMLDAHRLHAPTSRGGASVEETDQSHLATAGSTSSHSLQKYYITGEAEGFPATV

[4] = molecular target: T2, Estrogen receptor, ER1 (h); assay: IPP ER1 coactivator recruitment (antagonist); assay type: biochemical; settings: estriol
[5] = tested on: Thyroid hormone receptor alpha, THRA (h); assay: IPP THRA coactivator recruitment (agonist); assay type: biochemical, human; settings: agonist, T3
Tubulin (r) = assay: IPP Tubulin binding; set-up: species or system rat; settings: ligand/control Colchicine
HepG2 cells [6] = assay: Cell stress panel (CSP), 24 h, 8 concentrations, BIFROST global PoD; assay type: cell-based; settings: HepG2; cell stress panel PoD
Description: Compounds were tested using the previously developed cell stress panel ([Hatherell et al. 2020]) and the expanded biomarker panel outlined in Middleton et al. HepG2 cells were treated with all compounds for 24 h across 8 concentrations prior to biomarker analysis. The same plate layout and number of replicates (3 biological and 2 technical) were used as previously for each assay within the panel.

HepG2 cells [7] = assay: High-throughput transcriptomics (HTTr, TempO-Seq), HepG2, 24 h; assay type: cell-based, human; settings: HepG2; for pod_httr_bifrost PoD: HTTr BIFROST PoD; for podl_path_minbmd PoD: HTTr minimum pathway BMD(L)
Description: (§1) HepG2, HepaRG, and MCF7 cells were treated with each compound for 24 h across a dose range of 7 concentrations and lysed using TempO-Seq lysis buffer (BioSpyder Technologies, proprietary kit, see [Middleton et al. 2022] for method details). Sequencing was performed using TempO-Seq (BioClavis) version 2 of the human whole transcriptome panel and analyzed as described previously in Middleton et al.

HepaRG cells = assay: High-throughput transcriptomics (HTTr, TempO-Seq), HepaRG, 24 h; assay type: cell-based, human; settings: HepaRG; for pod_httr_bifrost PoD: HTTr BIFROST PoD; for podl_path_minbmd PoD: HTTr minimum pathway BMD(L)
Description: as §1

MCF7 cells = assay: High-throughput transcriptomics (HTTr, TempO-Seq), MCF7, 24 h; assay type: cell-based, human; settings: MCF-7; for pod_httr_bifrost PoD: HTTr BIFROST PoD; for podl_path_minbmd PoD: HTTr minimum pathway BMD(L)
Description: as §1

[8] = PBK model plasma Cmax estimate (Gastroplus 9.8; levels L1, L2, L3); set-up: species or system human; settings: therapeutic uses
[9] = tested on: 63 targets with known safety liabilities; assay: In vitro pharmacological profiling (IPP) panel, screening at 10 or 100 µM and dose response, minimum IC50/AC50; assay type: biochemical; settings: lowest AC50 across IPP panel (systemic targets); cell_type -; read-out: ipp_lowest_ac50_systemic PoD
[10] = tested on: Glutamate receptor ionotropic NMDA 1 non-selective, GRIN1 (r); settings: control CGS 19755
[11] = molecular target: T3, Pregnane X receptor PXR, NR1I2 (h) (Homo sapiens, UniProt O75469)
T3 sequence (O75469 1-434): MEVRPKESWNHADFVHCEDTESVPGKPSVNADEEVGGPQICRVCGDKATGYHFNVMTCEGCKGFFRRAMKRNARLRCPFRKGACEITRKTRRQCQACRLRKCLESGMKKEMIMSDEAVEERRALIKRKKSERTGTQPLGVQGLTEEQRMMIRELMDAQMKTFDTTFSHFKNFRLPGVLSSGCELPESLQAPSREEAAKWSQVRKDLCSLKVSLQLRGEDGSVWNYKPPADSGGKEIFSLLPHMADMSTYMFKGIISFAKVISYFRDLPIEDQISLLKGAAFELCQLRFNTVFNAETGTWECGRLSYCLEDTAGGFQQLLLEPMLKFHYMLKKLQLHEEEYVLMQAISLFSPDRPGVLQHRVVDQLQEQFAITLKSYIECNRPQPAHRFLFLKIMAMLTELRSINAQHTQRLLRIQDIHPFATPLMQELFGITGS

[12] = human
rat = settings: rat, ref ToxRefDB/Paul-Friedman et al. (2020)/regulatory opinions, cited from earlier work
[13] = cited from earlier work
[14] = at the given pH, single value or median, cited from earlier work
[15] = PBK level L2; taken or scaled from references (median where several); ref [6],[7],[10],[19]; cited from earlier work
[16] = hepatic intrinsic clearance (Clint); settings: PBK level L3; optimised against clinical data; per chemical [8],[9],[14],[16],[22],[24],[25],[29],[30],[32]
[17] = Assignment of risk classifications to benchmark chemical-exposure scenarios; settings: for risk: from table S1
[18] = tested on: Potassium Voltage-Gated Channel Kv non-selective, KCNQ1 (r); assay: IPP KCNQ1 binding (antagonist radioligand); set-up: species or system rat; settings: IPP screening at 100 uM; control α-dendrotoxin
[19] = tested on: Sodium channel protein type 5 subunit alpha (site 2), SCN5A (r); assay type: binding, rat; settings: IPP screening at 100 uM; control veratridine
[20] = molecular target: Potassium voltage-gated channel subfamily H member 2 hERG, KCNH2 (h) (Homo sapiens, UniProt Q12809); settings: human
Sequence of Potassium voltage-gated channel subfamily H member 2 hERG, KCNH2 (h) (Q12809 whole entry): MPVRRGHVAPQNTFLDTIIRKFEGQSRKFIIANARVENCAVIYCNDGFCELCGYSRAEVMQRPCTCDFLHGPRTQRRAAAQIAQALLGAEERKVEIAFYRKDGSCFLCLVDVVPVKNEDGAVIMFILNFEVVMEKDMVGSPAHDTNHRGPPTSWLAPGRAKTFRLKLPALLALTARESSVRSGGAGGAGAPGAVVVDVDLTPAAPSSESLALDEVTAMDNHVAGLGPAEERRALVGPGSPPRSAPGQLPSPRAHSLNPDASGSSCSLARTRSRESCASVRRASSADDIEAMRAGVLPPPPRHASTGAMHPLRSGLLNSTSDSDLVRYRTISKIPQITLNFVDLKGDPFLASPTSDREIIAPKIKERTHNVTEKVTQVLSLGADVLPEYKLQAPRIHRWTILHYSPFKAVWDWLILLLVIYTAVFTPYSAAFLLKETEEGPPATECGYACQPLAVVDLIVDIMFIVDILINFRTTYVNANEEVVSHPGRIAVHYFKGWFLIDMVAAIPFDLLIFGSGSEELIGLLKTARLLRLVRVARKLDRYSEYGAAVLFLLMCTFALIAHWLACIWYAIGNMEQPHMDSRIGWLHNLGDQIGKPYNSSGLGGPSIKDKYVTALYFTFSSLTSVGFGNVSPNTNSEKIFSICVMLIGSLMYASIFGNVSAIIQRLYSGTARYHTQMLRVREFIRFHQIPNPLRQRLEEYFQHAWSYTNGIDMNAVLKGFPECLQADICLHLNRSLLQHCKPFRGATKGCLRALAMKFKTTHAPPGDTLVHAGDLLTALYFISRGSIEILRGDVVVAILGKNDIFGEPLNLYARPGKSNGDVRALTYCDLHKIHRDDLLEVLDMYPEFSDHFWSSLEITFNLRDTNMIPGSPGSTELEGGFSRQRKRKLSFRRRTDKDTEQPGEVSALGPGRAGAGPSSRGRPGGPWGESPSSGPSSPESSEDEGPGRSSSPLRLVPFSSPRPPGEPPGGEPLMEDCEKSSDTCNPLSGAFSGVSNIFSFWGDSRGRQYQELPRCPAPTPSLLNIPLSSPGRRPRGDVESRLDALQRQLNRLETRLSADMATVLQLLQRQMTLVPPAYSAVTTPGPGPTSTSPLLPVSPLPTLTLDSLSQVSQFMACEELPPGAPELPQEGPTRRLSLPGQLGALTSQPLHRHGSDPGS

[21] = PBK input, ref [11], cited from earlier work
[22] = PBK input, levels L2/L3; ref [5]; cited from earlier work
[23] = unbound fraction in plasma (fup); settings: PBK input, levels L2/L3; median of [2] internal data (unpublished) and [10]
[24] = Oral 200 mg solution, fasted, 23 healthy male, validation, ref Huang et al. 1986
[25] = Oral 200 mg suspension, fasted, 23 healthy male, validation, ref Huang et al. 1986
[26] = Oral 200 mg tablet, fasted, 23 healthy male, validation, ref Huang et al. 1986
[27] = Oral 200 mg tablet, fed, 6 healthy male, calibration, ref Daneshmend et al. 1981
[28] = Oral 200 mg tablet, fed, 8 healthy male, validation, ref Daneshmend et al. 1983
[29] = 100 uM, * denotes assay interference (2-Amino-6-chloro-4-nitrophenol, HC Red 3)

CC(=O)N1CCN(c2ccc(OC[C@H]3CO[C@](Cn4ccnc4)(c4ccc(Cl)cc4Cl)O3)cc2)CC1 [Ketoconazole, 1-{4-[4-({(2R,4S)-2-(2,4-Dichlorophenyl)-2-[(1H-imidazol-1-yl)methyl]-1,3-dioxolan-4-yl}methoxy)phenyl]piperazin-1-yl}ethan-1-one]
Specific binding ([1]; IPP screening at 10 uM): 15.5% | Specific binding ([2]; IPP screening at 10 uM): 2.1% | IPP screening %, Coactivator recruitment ([3]; 10 uM): -1.0% | IPP screening %, Coactivator recruitment ([4]; 10 uM): 24.0% | IPP screening %, Coactivator recruitment ([5]; 10 uM): 1.0% | IPP screening %, Specific binding (Tubulin (r); 10 uM): -15.0% | pod_cell_stress PoD (HepG2 cells [6]): 0.1454 µM | pod_httr_bifrost PoD (HepG2 cells [7]): 0.0007156 µM | podl_path_minbmd PoD (HepG2 cells [7]): 0.9153 µM | pod_httr_bifrost PoD (HepaRG cells): 0.01699 µM | podl_path_minbmd PoD (HepaRG cells): 0.1535 µM | pod_httr_bifrost PoD (MCF7 cells): 0.1915 µM | podl_path_minbmd PoD (MCF7 cells): 0.1648 µM | underprediction of the L3 result at L2 (Cmax) [8]: ≥ 5 fold | AC50 [9]: 380 nM | Specific binding ([10]; IPP screening at 10 uM): 2.7% | IPP Dose Response PoD: PXR antagonist [11]: [7.8,21.8] | Fup [12]: 0.1% | PoD (NOEL) (rat; 28 days, changes in thyroid hormone levels): 6.25 mg/kg bw/day | Reported AUC0-t [13, 24]: 18170 ng·h/mL | Reported cmax [13, 24]: 5.16 µg/mL | Reported tmax [13, 24]: 1 h | Reported AUC0-t [13, 25]: 15730 ng·h/mL | Reported cmax [13, 25]: 4.66 µg/mL | Reported tmax [13, 25]: 1 h | Reported AUC0-t [13, 26]: 14740 ng·h/mL | Reported cmax [13, 26]: 3.26 µg/mL | Reported tmax [13, 26]: 2 h | Reported AUC0-t [13, 27]: 16940 ng·h/mL | Reported cmax [13, 27]: 3.573 µg/mL | Reported tmax [13, 27]: 2.475 h | Reported AUC0-t [13, 28]: 10330 ng·h/mL | Reported cmax [13, 28]: 3.636 µg/mL | Reported tmax [13, 28]: 1.28 h | Aqueous Solubility ([14]; PBK level L2, ref [1],[4],[5],[10],[11],[17],[26]): 42 µg/mL | Aqueous Solubility ([14]; PBK level L3, ref [4],[5],[10],[11]): 42 µg/mL | Intrinsic Liver Clearance [15]: 1620.2 L/h | Intrinsic Liver Clearance [16]: 10077 L/h | risk ([17]; Dermal, Therapeutic, 2% daily, Shampoo, Exp2): 0 | risk ([17]; Dermal, Therapeutic, 2% twice weekly, Shampoo, Exp1): 0 | risk ([17]; Oral, 200 mg/day for fungal infection, Tablet, Exp4): 1 | risk ([17]; Oral, Therapeutic, 1200mg/day, Tablet, Exp3): 1

CC(C)[C@H](N)C(=O)O [L-valine, L-Valine]
Specific binding [18]: 15.0% | Specific binding ([1]; IPP screening at 100 uM): 1.9% | Specific binding [19]: 12.2% | Specific binding ([2]; IPP screening at 100 uM): -4.2% | IPP screening %, Coactivator recruitment [3, 29]: 0.0% | IPP screening %, Coactivator recruitment [4, 29]: -2.0% | IPP screening %, Coactivator recruitment [5, 29]: 2.0% | IPP screening %, Specific binding (Tubulin (r); 100 uM): 2.0% | pod_cell_stress PoD (HepG2 cells [6]): 39.7854 µM | pod_httr_bifrost PoD (HepG2 cells [7]): 316.528 µM | podl_path_minbmd PoD (HepG2 cells [7]): 625 µM | pod_httr_bifrost PoD (HepaRG cells): 162.177 µM | podl_path_minbmd PoD (HepaRG cells): 351.712 µM | pod_httr_bifrost PoD (MCF7 cells): 26.9475 µM | podl_path_minbmd PoD (MCF7 cells): 43.6766 µM | Specific binding ([10]; IPP screening at 100 uM): 0.4% | IPP screening %, Specific binding [20]: -3.8% | logP (physchem): -2.21 | PoD (NOAEL) (rat; repeat dose): 666 mg/kg bw/day | pKa Value ACID ([21]; level L2): 2.3 | pKa Value BASE ([21]; levels L2/L3): 9.55 | Risk Classification ([17]; Oral 26 mg/kg bw/day): Low risk | Risk Classification ([17]; Oral 4000 mg/day): Low risk | risk ([17]; Oral, 26 mg/kg mean requirements, Tablet, Exp1): 0 | risk ([17]; Oral, Dietary 4000 mg/day, Food & Drink, Exp2): 0

CN(C)[C@@H]1C(O)=C(C(N)=O)C(=O)[C@@]2(O)C(O)=C3C(=O)c4c(O)cccc4[C@@](C)(O)[C@H]3[C@H](O)[C@@H]12 [Oxytetracycline]
logP/D [22]: -1.307 | Fup [23]: 68.88%
